PubChem BioAssay AID1963982 (Molecular Pharmacology Branch, DTP, NCI, 2024)
pIC50: −log10 of the molar value.

System: 313798-341-R-J2-PDC spheroids, viability
Assay: Anticancer human tumor 313798-341-R-J2-PDC patient-derived cervical squamous cell carcinoma cell line growth inhibition [PI3K]
Conditions: spheroids with HUVEC and MSC; for pIC50: curve of first compound; for viability, T/C: stronger effect = lower value; active means viability on the fitted dose curve at most 10% of control; inactive means the rest
In short: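 Combination activity was assessed by viability in multicellular tumor spheroids carrying HUVEC and MSC components. Agents were tested with PI3K inhibitors from a Cmax-based top dose (or 10 microM) downward in half-log increments.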
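Further: spheroids exposed to compounds for seven days.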
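Wherever viability, T/C is given: 100% = DMSO vehicle control viability.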

CC1(C)CCC(Nc2ncc(C(F)(F)F)c(-c3c[nH]c4c(P(C)(C)=O)c(C#N)ccc34)n2)CN1 (centres undefined) + CC(Nc1ncnc2nc[nH]c12)c1cc2cccc(Cl)c2c(=O)n1-c1ccccc1
inactive: viability, T/C (second compound 0.0316 µM, first compound 0.0316 µM) 54.2% | viability, T/C (second compound 0.0316 µM, first compound 0.1 µM) 46.3% | viability, T/C (second compound 0.0316 µM, first compound 0.316 µM) 46.9% | viability, T/C (second compound 0.0316 µM, first compound 1 µM) 48% | viability, T/C (second compound 0.0316 µM, first compound 3.16 µM) 50.5% | viability, T/C (second compound 0.0316 µM, first compound 10 µM) 60.4% | viability, T/C (second compound 0.1 µM, first compound 0.0316 µM) 47.3% | viability, T/C (second compound 0.1 µM, first compound 0.1 µM) 49.3% | viability, T/C (second compound 0.1 µM, first compound 0.316 µM) 47.3% | viability, T/C (second compound 0.1 µM, first compound 1 µM) 46.8% | viability, T/C (second compound 0.1 µM, first compound 3.16 µM) 50.3% | viability, T/C (second compound 0.1 µM, first compound 10 µM) 66.6% | viability, T/C (second compound 0.316 µM, first compound 0.0316 µM) 49.3% | viability, T/C (second compound 0.316 µM, first compound 0.1 µM) 44.3% | viability, T/C (second compound 0.316 µM, first compound 0.316 µM) 44.3% | viability, T/C (second compound 0.316 µM, first compound 1 µM) 43.8% | viability, T/C (second compound 0.316 µM, first compound 3.16 µM) 51.8% | viability, T/C (second compound 0.316 µM, first compound 10 µM) 62.3% | viability, T/C (second compound 1 µM, first compound 0.0316 µM) 47.4% | viability, T/C (second compound 1 µM, first compound 0.1 µM) 46.8% | viability, T/C (second compound 1 µM, first compound 0.316 µM) 45.5% | viability, T/C (second compound 1 µM, first compound 1 µM) 49.2% | viability, T/C (second compound 1 µM, first compound 3.16 µM) 54% | viability, T/C (second compound 1 µM, first compound 10 µM) 58.2% | viability, T/C (second compound 3.16 µM, first compound 0.0316 µM) 49.2% | viability, T/C (second compound 3.16 µM, first compound 0.1 µM) 45.4% | viability, T/C (second compound 3.16 µM, first compound 0.316 µM) 42.7% | viability, T/C (second compound 3.16 µM, first compound 1 µM) 45.8% | viability, T/C (second compound 3.16 µM, first compound 3.16 µM) 43.7% | viability, T/C (second compound 3.16 µM, first compound 10 µM) 50.3% | viability, T/C (second compound 10 µM, first compound 0.0316 µM) 42.1% | viability, T/C (second compound 10 µM, first compound 0.1 µM) 36.2% | viability, T/C (second compound 10 µM, first compound 0.316 µM) 35% | viability, T/C (second compound 10 µM, first compound 1 µM) 34.5% | viability, T/C (second compound 10 µM, first compound 3.16 µM) 38.1% | viability, T/C (second compound 10 µM, first compound 10 µM) 38.1%
> 7.50: pIC50 (second compound 0.0316 µM) | pIC50 (second compound 0.1 µM) | pIC50 (second compound 0.316 µM) | pIC50 (second compound 1 µM) | pIC50 (second compound 3.16 µM) | pIC50 (second compound 10 µM)

Cn1cnc2c(F)c(Nc3ccc(Br)cc3Cl)c(C(=O)NOCCO)cc21 + COc1c(OCCCN2CCOCC2)ccc2c3n(c(=NC(=O)c4cnc(N)nc4)nc12)CCN3
< 5.52: pIC50 (second compound 0.00316 µM) | pIC50 (second compound 0.01 µM)
> 8.02: pIC50 (second compound 0.1 µM) | pIC50 (second compound 0.316 µM) | pIC50 (second compound 1 µM)
active: viability, T/C (second compound 0.316 µM, first compound 0.03 µM) 9.53% | viability, T/C (second compound 0.316 µM, first compound 0.0949 µM) 5.72% | viability, T/C (second compound 0.316 µM, first compound 0.3 µM) 4.75% | viability, T/C (second compound 0.316 µM, first compound 0.949 µM) 3.32% | viability, T/C (second compound 0.316 µM, first compound 3 µM) 2.54% | viability, T/C (second compound 1 µM, first compound 0.00949 µM) 10.1% | viability, T/C (second compound 1 µM, first compound 0.03 µM) 5.21% | viability, T/C (second compound 1 µM, first compound 0.0949 µM) 3.78% | viability, T/C (second compound 1 µM, first compound 0.3 µM) 3.94% | viability, T/C (second compound 1 µM, first compound 0.949 µM) 2.23% | viability, T/C (second compound 1 µM, first compound 3 µM) 1%
inactive: viability, T/C (second compound 0.00316 µM, first compound 0.00949 µM) 88% | viability, T/C (second compound 0.00316 µM, first compound 0.03 µM) 93.1% | viability, T/C (second compound 0.00316 µM, first compound 0.0949 µM) 95.2% | viability, T/C (second compound 0.00316 µM, first compound 0.3 µM) 87.6% | viability, T/C (second compound 0.00316 µM, first compound 0.949 µM) 97.3% | viability, T/C (second compound 0.00316 µM, first compound 3 µM) 75.7% | viability, T/C (second compound 0.01 µM, first compound 0.00949 µM) 93.1% | viability, T/C (second compound 0.01 µM, first compound 0.03 µM) 100% | viability, T/C (second compound 0.01 µM, first compound 0.0949 µM) 97.3% | viability, T/C (second compound 0.01 µM, first compound 0.3 µM) 101% | viability, T/C (second compound 0.01 µM, first compound 0.949 µM) 82% | viability, T/C (second compound 0.01 µM, first compound 3 µM) 70.3% | viability, T/C (second compound 0.0316 µM, first compound 0.00949 µM) 84.8% | viability, T/C (second compound 0.0316 µM, first compound 0.03 µM) 75.5% | viability, T/C (second compound 0.0316 µM, first compound 0.0949 µM) 75% | viability, T/C (second compound 0.0316 µM, first compound 0.3 µM) 62.5% | viability, T/C (second compound 0.0316 µM, first compound 0.949 µM) 73.4% | viability, T/C (second compound 0.0316 µM, first compound 3 µM) 46.8% | viability, T/C (second compound 0.1 µM, first compound 0.00949 µM) 45.2% | viability, T/C (second compound 0.1 µM, first compound 0.03 µM) 35.3% | viability, T/C (second compound 0.1 µM, first compound 0.0949 µM) 32.3% | viability, T/C (second compound 0.1 µM, first compound 0.3 µM) 31.6% | viability, T/C (second compound 0.1 µM, first compound 0.949 µM) 26.4% | viability, T/C (second compound 0.1 µM, first compound 3 µM) 17.1% | viability, T/C (second compound 0.316 µM, first compound 0.00949 µM) 12.5%
5.53: pIC50 (second compound 0.0316 µM)
